Bounds are passed on as bounds.

The target in this experiment is T1, RORγ (Homo sapiens, UniProt P51449).
T1 construct: expressed in transfected cells; host or cells: 293FT cells (Invitrogen), expression vector pFN26A (Promega)
T1 sequence (P51449 269-508 limits assumed): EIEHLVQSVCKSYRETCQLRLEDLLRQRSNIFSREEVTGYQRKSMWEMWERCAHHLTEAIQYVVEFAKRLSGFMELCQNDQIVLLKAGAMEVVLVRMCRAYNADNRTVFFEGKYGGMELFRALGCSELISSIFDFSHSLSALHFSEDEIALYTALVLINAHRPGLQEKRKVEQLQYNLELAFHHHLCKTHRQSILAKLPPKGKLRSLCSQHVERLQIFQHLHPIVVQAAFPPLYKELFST
The experiment is described as follows: RORγ GAL4 reporter gene assay (luciferase readout, 293FT cells). It counts as cell-based. Particulars: inhibition of RORγ (GAL4-RORγ-LBD) in transfected 293FT cells, luciferase signal, overnight incubation; read-out: mean pIC50 (converted). The method, then: RORγ GAL4 Reporter Gene Assay
Example inhibitors 1-47 were tested for their ability to inhibit RORγ activity in a RORγ GAL4 reporter gene assay. The assay procedure and results are described below.
RORγ GAL4 Reporter Gene Assay Description
A GAL4 one-hybrid reporter system employing luciferase readout was established to determine inhibition of RORγ in 293FT cells. The RORγ ligand-binding domain (LBD) was fused to the yeast GAL4 DNA binding domain (DBD) and placed under the control of the human cytomegalovirus (CMV) immediate early promoter, using expression vector pFN26A (Promega) and standard recombinant DNA cloning methods. To serve as a control in the assay, a similar vector was generated in which the GAL4-DBD was fused to Herpes simplex virus protein 16 (VP16), a constitutive transcriptional activator.
To monitor the inhibitory effect of compounds on RORγ, a transcriptional reporter construct was used. The pGL4.35 vector (Promega) contains nine copies of the GAL4 Upstream Activator Sequence (UAS). This sequence drives the transcription of the luciferase reporter gene luc2P in response to binding of a fusion protein containing the GAL4 DNA binding domain, as for example expressed by the GAL4-RORγ-LBD and GAL4-VP16 expression vectors described above. To allow a GAL4 fusion protein to drive the expression of the luciferase reporter, the pGL4.35 expression vector and the appropriate GAL4 fusion protein expression vector were bulk transfected in the 293FT cells using standard transfection techniques.
The day after transfection, cells were plated into 96 well plates, test compound was added and the plates were incubated overnight. Subsequently, the firefly luciferase activity was quantified using luciferase detection reagent and luminescence readout.
Detailed Assay Description
293FT cells (Invitrogen) were transfected with a GAL4 fusion protein expression vector (as described above) and the transcriptional reporter construct (pGL4.35, Promega). 60 μL of TransIT-293 transfection reagent (Mirus Bio) was added drop wise to 1500 μl Opti-MEM I Reduced Serum Medium (Invitrogen) and incubated at room temperature (RT) for 5 to 20 minutes. 1500 μL of this reagent mixture was added to 5 μg of GAL4 fusion protein expression vector and 5 μg of the transcriptional reporter construct, and incubated at RT for 20 minutes.
To harvest 293FT cells from a T75 flask, first the culture medium was taken off the cells. Subsequently, the cells were washed with Phosphate Buffered Saline (PBS) (Lonza), after which the PBS was removed. To dissociate the cells, 1 ml of TrypLE Express (Invitrogen) was added to the flask, followed by incubation at RT until the cells visually started to detach. Cells were collected in 5 mL of assay medium (DMEM culture medium (Lonza), 10% dialyzed FBS (Invitrogen) and Pen/Strep (Lonza)) to achieve a single cell suspension. 10×10^6 cells were spun down and re-suspended in 10 mL of assay medium. Subsequently, the cell suspension was added to the transfection mix tube, and then transferred as a whole to a T75 flask (Greiner), followed by overnight (16-24 hours) incubation at 37° C. and 5% CO2.
For compound screening, the cells were harvested (as described above) and counted. 13×10^6 cells were spun down, the supernatant was aspirated and the cells were re-suspended in 17.3 mL of assay medium obtaining a cell suspension of 0.75×10^6 cells/mL. 80 μL of cell suspension (60,000 cells) was plated per well into a white, flat bottom, tissue culture treated, 96 well screening plates (Greiner).
Test compounds were diluted, starting from a 10 mM dimethylsulf oxide (DMSO) stock solution, to serial dilutions in DMSO at 500× the final test concentration. Subsequently, these solutions were diluted to 5× the final test concentration in two 10-fold-dilution steps in assay medium. The final DMSO concentration of the 5× test compound solution was 1%. […]
As to `COc1cccc(Oc2cc(NC(=O)Cc3ccc(S(=O)(=O)NC4CC4)cc3)ccc2-c2cccc(F)c2)c1` [Example 16, 2-[4-(cyclopropylsulfamoyl)phenyl]-N-[4-(3-fluorophenyl)-3-(3-methoxyphenoxy)phenyl]acetamide], the IC50 is at most 1000 nM.
The same measure for `COc1cccc(Oc2cc(NC(=O)Cc3ccc(S(=O)(=O)CC4CC4)cc3)ccc2-n2nccc2C)c1` [Example 7, 2-(4-cyclopropylmethanesulfonylphenyl)-N-[3-(3-methoxyphenoxy)-4-(5-methyl-1H-pyrazol-1-yl)phenyl]acetamide]: at most 100 nM.
Under `Cc1cc(NC(=O)Cc2ccc(S(=O)(=O)CC3CC3)cc2)ncc1-c1ccccc1OC(F)(F)F` [Example 31, 2-(4-cyclopropylmethanesulfonylphenyl)-N-{4-methyl-5-[2-(trifluoromethoxy)phenyl]pyridin-2-yl}acetamide] stands at most 100 nM.
Under `O=C(Cc1ccc(S(=O)(=O)CC2CC2)cc1)Nc1ccc(-c2cc(F)cc(F)c2)c(Oc2cccc(Cl)c2)c1` [Example 8, N-[3-(3-chlorophenoxy)-4-(3,5-difluorophenyl)phenyl]-2-(4-cyclopropylmethanesulfonylphenyl)acetamide] stands at most 100 nM.
For `Cc1ccn(-c2ccc(NC(=O)Cc3ccc(S(=O)(=O)CC4CC4)cc3)cc2)n1` [Example 40, 2-(4-cyclopropylmethanesulfonylphenyl)-N-[4-(3-methyl-1H-pyrazol-1-yl)phenyl]acetamide], the IC50 is at most 1000 nM.
Under `O=C(Cc1ccc(S(=O)(=O)CC2CC2)cc1)Nc1nc(-c2ccccc2)c(Oc2cccnc2)s1` [Example 21, 2-(4-cyclopropylmethanesulfonylphenyl)-N-[4-phenyl-5-(pyridin-3-yloxy)-1,3-thiazol-2-yl]acetamide] stands at most 1000 nM; under `O=C(Cc1ccc(S(=O)(=O)CC2CC2)cc1)Nc1ccc(-c2cccc(F)c2)c(Oc2cccc(C(F)(F)F)c2)c1` [Example 11, 2-(4-cyclopropylmethanesulfonylphenyl)-N-[4-(3-fluorophenyl)-3-[3-(trifluoromethyl)phenoxy]phenyl]acetamide], at most 100 nM; under `Cc1cc(NC(=O)Cc2ccc(S(=O)(=O)CC3CC3)cc2)ccc1-c1ccccc1OC(F)(F)F` [Example 29, 2-(4-cyclopropylmethanesulfonylphenyl)-N-{3-methyl-4-[2-(trifluoromethoxy)phenyl]phenyl}acetamide], at most 100 nM.
The same measure for `O=C(Cc1ccc(S(=O)(=O)CC2CC2)cc1)Nc1ccc(-c2ccccc2OC(F)(F)F)c(Cl)c1` [Example 28, N-{3-chloro-4-[2-(trifluoromethoxy)phenyl]phenyl}-2-(4-cyclopropylmethanesulfonylphenyl)acetamide]: at most 100 nM.
Under `O=C(Cc1ccc(S(=O)(=O)CC2CC2)cc1)Nc1nc(-c2ccccc2)c(C(=O)c2ccccc2)s1` [Example 22, N-(5-benzoyl-4-phenyl-1,3-thiazol-2-yl)-2-(4-cyclopropylmethanesulfonylphenyl)acetamide] stands at most 100 nM; under `O=C(Cc1ccc(S(=O)(=O)CC2CC2)cc1)Nc1cc(Cl)c(-c2ccccc2OC(F)(F)F)c(Cl)c1` [Example 30, 2-(4-cyclopropylmethanesulfonylphenyl)-N-{3,5-dichloro-4-[2-(trifluoromethoxy)phenyl]phenyl}acetamide], at most 100 nM.
Turning to `O=C(Cc1ccc(S(=O)(=O)CC2CC2)cc1)Nc1ccc(-c2cccc(F)c2)c(Oc2cccc(Cl)c2)c1` [Example 4, N-[3-(3-chlorophenoxy)-4-(3-fluorophenyl)phenyl]-2-(4-cyclopropylmethanesulfonylphenyl)acetamide], the IC50 was at most 100 nM.
The same measure for `Cc1cc(NC(=O)Cc2ccc(S(=O)(=O)CC3CC3)cc2)nc(C)c1-c1ccccc1OC(F)(F)F` [Example 37, 2-(4-cyclopropylmethanesulfonylphenyl)-N-{4,6-dimethyl-5-[2-(trifluoromethoxy)phenyl]pyridin-2-yl}acetamide]: at most 100 nM.
Under `COc1cccc(Oc2cc(NC(=O)Cc3ccc(S(=O)(=O)CC4CC4)cc3)ccc2-n2cnc(C)c2)c1` [Example 3, 2-(4-cyclopropylmethanesulfonylphenyl)-N-[3-(3-methoxyphenoxy)-4-(4-methyl-1H-imidazol-1-yl)phenyl]acetamide] stands at most 100 nM; under `O=C(Cc1ccc(S(=O)(=O)CC2CC2)cc1)Nc1cc(-c2cccnc2)cs1` [Example 25, 2-(4-cyclopropylmethanesulfonylphenyl)-N-[4-(pyridin-3-yl)thiophen-2-yl]acetamide], at most 1000 nM; under `O=C(Cc1ccc(S(=O)(=O)NC2CC2)cc1)Nc1ccc(-c2ccccc2OC(F)(F)F)c(Cl)c1` [Example 33, N-{3-chloro-4-[2-(trifluoromethoxy)phenyl]phenyl}-2-[4-(cyclopropylsulfamoyl)phenyl]acetamide], at most 100 nM.
The same measure for `O=C(Cc1ccc(S(=O)(=O)CC2CC2)cc1)Nc1ccc(-c2ncon2)cc1` [Example 47, 2-(4-cyclopropylmethanesulfonylphenyl)-N-[4-(1,2,4-oxadiazol-3-yl)phenyl]acetamide]: at most 1000 nM.
Regarding `O=C(Cc1ccc(S(=O)(=O)NC2CC2)cc1)Nc1ccc(-c2cccc(F)c2)c(Oc2cccc(Cl)c2)c1` [Example 17, N-[3-(3-chlorophenoxy)-4-(3-fluorophenyl)phenyl]-2-[4-(cyclopropylsulfamoyl)phenyl]acetamide], the IC50 was at most 1000 nM.

The record behind these values is US10259782B2, “ROR gamma (RORγ) modulators” (LEAD PHARMA HOLDING B.V., priority 2015, dated 2019).
